What follows are compounds tested against BCL-2 recombinant protein (Homo sapiens, UniProt P10415) (assay: Cell free Bcl-2:Bak affinity assay (Bcl-2 Bak), HTRF competition of FAM-Bak peptide). Conditions: 1 μM compound, 4 nM BCL-2 recombinant protein, 100 nM FAM-Bak, read-out: potency (% inhibition at 1 μM).
Assay type: binding
Summary of the method: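 Compounds in 10-point 3-fold dilution preincubated 10 min at RT with 4 nM GST-BCL-2 (20 mM K phosphate pH 7.5, 50 mM NaCl, 1 mM EDTA, 0.005% Triton X-100), then 100 nM FAM-Bak 10 min, anti-GST-Tb added, 60 min RT dark. HTRF read; % inhibition vs DMSO and positive control, IC50 from curve fit.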

Chain of BCL-2 recombinant protein (P10415 whole entry): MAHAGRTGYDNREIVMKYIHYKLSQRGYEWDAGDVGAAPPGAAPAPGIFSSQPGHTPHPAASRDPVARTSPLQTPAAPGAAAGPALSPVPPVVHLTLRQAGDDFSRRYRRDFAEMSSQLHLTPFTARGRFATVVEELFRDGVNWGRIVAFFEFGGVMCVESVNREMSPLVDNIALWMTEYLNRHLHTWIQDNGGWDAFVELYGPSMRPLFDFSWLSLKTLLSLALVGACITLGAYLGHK

`CNc1c([N+](=O)[O-])cc(C(=O)NS(=O)(=O)c2ccc(N3CCN(CC4=C(c5ccc(Cl)cc5)CC(C)(C)CC4)CC3)cc2)c(Cl)c1C` [Example 54, 2-chloro-N-[4-[4-[[2-(4-chlorophenyl)-4,4-dimethylcyclohexen-1-yl]methyl]piperazin-1-yl]phenyl]sulfonyl-4-(methylamino)-3-methyl-5-nitrobenzamide] and `Cn1ccc(-c2nc(C(=O)NS(=O)(=O)c3ccc(N4CCN(CC5=C(c6ccc(Cl)cc6)CC(C)(C)CC5)CC4)cc3)ccc2F)cc1=O` [Example 56, N-[4-[4-[[2-(4-Chlorophenyl)-4,4-dimethylcyclohexen-1-yl]methyl]piperazin-1-yl]phenyl]sulfonyl-3-fluoro-1′-methyl-2′-oxo-1′,2′-dihydro-[2,4′-bipyridine]-6-carboxamide] fall in the same range of inhibition at 1 µM: 50 to 90% for the first, 50 to 90% for the second.

Compared with `COc1cc(-c2nc(C(=O)NS(=O)(=O)c3ccc(N4CCN(CC5=C(c6ccc(Cl)cc6)CC(C)(C)CC5)CC4)cc3)ccc2F)ccn1` [Example 55, N-[4-[4-[[2-(4-Chlorophenyl)-4,4-dimethylcyclohexen-1-yl]methyl]piperazin-1-yl]phenyl]sulfonyl-5-fluoro-6-(2-methoxypyridin-4-yl)pyridine-2-carboxamide], `CC1(C)CCC(CN2CCN(c3ccc(S(=O)(=O)NC(=O)c4ccc(F)c(-c5ccncc5)n4)cc3)CC2)=C(c2ccc(Cl)cc2)C1` [Example 61, N-[4-[4-[[2-(4-chlorophenyl)-4,4-dimethyl-cyclohexen-1-yl]methyl]piperazin-1-yl]phenyl]sulfonyl-5-fluoro-6-(4-pyridyl)pyridine-2-carboxamide] is lower in inhibition at 1 µM: 50 to 90% for the first, under 50% for the second.

`COc1ncc(-c2nc(C(=O)NS(=O)(=O)c3ccc(N4CCN(CC5=C(c6ccc(Cl)cc6)CC(C)(C)CC5)CC4)cc3)ccc2F)cn1` [Example 57, N-[4-[4-[[2-(4-Chlorophenyl)-4,4-dimethylcyclohexen-1-yl]methyl]piperazin-1-yl]phenyl]sulfonyl-5-fluoro-6-(2-methoxypyrimidin-5-yl)pyridine-2-carboxamide] and `CC1(C)CCC(CN2CCN(c3ccc(S(=O)(=O)NC(=O)c4ccc(F)c(-c5cn[nH]c5)n4)cc3)CC2)=C(c2ccc(Cl)cc2)C1` [Example 59, N-[4-[4-[[2-(4-Chlorophenyl)-4,4-dimethylcyclohexen-1-yl]methyl]piperazin-1-yl]phenyl]sulfonyl-5-fluoro-6-(1H-pyrazol-4-yl)pyridine-2-carboxamide] fall in the same range of inhibition at 1 µM: 50 to 90% for the first, 50 to 90% for the second.

`Cn1cc(-c2nc(C(=O)NS(=O)(=O)c3ccc(N4CCN(CC5=C(c6ccc(Cl)cc6)CC(C)(C)CC5)CC4)cc3)ccc2F)ccc1=O` [Example 58, N-[4-[4-[[2-(4-Chlorophenyl)-4,4-dimethylcyclohexen-1-yl]methyl]piperazin-1-yl]phenyl]sulfonyl-3-fluoro-1′-methyl-6′-oxo-1′,6′-dihydro-[2,3′-bipyridine]-6-carboxamide] and `Cn1ncc2ccc(-c3nc(C(=O)NS(=O)(=O)c4ccc(N5CCN(CC6=C(c7ccc(Cl)cc7)CC(C)(C)CC6)CC5)cc4)ccc3F)cc21` [Example 60, N-[4-[4-[[2-(4-Chlorophenyl)-4,4-dimethylcyclohexen-1-yl]methyl]piperazin-1-yl]phenyl]sulfonyl-5-fluoro-6-(1-methyl-1H-indazol-6-yl)pyridine-2-carboxamide] fall in the same range of inhibition at 1 µM: 50 to 90% for the first, 50 to 90% for the second.

Same assay, conditions: 10-concentration IC50 mode, 4 nM BCL-2 recombinant protein, 100 nM FAM-Bak, read-out: potency (IC50)

First: COc1cc(-c2nc(C(=O)NS(=O)(=O)c3ccc(N4CCN(CC5=C(c6ccc(Cl)cc6)CC(C)(C)CC5)CC4)cc3Oc3cnc4[nH]ccc4c3)ccc2F)ccn1 [Example 62, N-[4-[4-[[2-(4-Chlorophenyl)-4,4-dimethylcyclohexen-1-yl]methyl]piperazin-1-yl]-2-(1H-pyrrolo[2,3-b]pyridin-5-yloxy)phenyl]sulfonyl-5-fluoro-6-(2-methoxypyridin-4-yl)pyridine-2-carboxamide]
Second: Cn1cc(-c2nc(C(=O)NS(=O)(=O)c3ccc(N4CCN(CC5=C(c6ccc(Cl)cc6)CC(C)(C)CC5)CC4)cc3Oc3cnc4[nH]ccc4c3)ccc2F)cn1 [Example 63, N-[4-[4-[[2-(4-Chlorophenyl)-4,4-dimethylcyclohexen-1-yl]methyl]piperazin-1-yl]-2-(1H-pyrrolo[2,3-b]pyridin-5-yloxy)phenyl]sulfonyl-5-fluoro-6-(1-methylpyrazol-4-yl)pyridine-2-carboxamide]
The IC50 of the first is higher: 100 to 1000 nM for the first, 10 to 100 nM for the second. The second is the more potent here.

First: Cc1cc([N+](=O)[O-])cc(C(=O)NS(=O)(=O)c2ccc(C3=CCN(CC4=C(c5ccc(Cl)cc5)CC(C)(C)CC4)CC3)cc2Oc2cnc3[nH]ccc3c2)n1 [Example 64, N-[4-[1-[[2-(4-Chlorophenyl)-4,4-dimethylcyclohexen-1-yl]methyl]-3,6-dihydro-2H-pyridin-4-yl]-2-(1H-pyrrolo[2,3-b]pyridin-5-yloxy)phenyl]sulfonyl-6-methyl-4-nitropyridine-2-carboxamide]
Second: Cc1cc([N+](=O)[O-])cc(C(=O)NS(=O)(=O)c2ccc(N3CCN(CC4=C(c5ccc(Cl)cc5)CC(C)(C)CC4)CC3)cc2Oc2cnc3[nH]ccc3c2)n1 [Example 66, N-[4-[4-[[2-(4-Chlorophenyl)-4,4-dimethylcyclohexen-1-yl]methyl]piperazin-1-yl]-2-(1H-pyrrolo[2,3-b]pyridin-5-yloxy)phenyl]sulfonyl-6-methyl-4-nitropyridine-2-carboxamide]
The IC50 of the first is higher: over 1000 nM for the first, 10 to 100 nM for the second. The second is the more potent here.

First: Cc1cc([N+](=O)[O-])cc(C(=O)NS(=O)(=O)c2ccc(C3=CCN(CC4=C(c5ccc(Cl)cc5)CC(C)(C)CC4)CC3)cc2F)n1 [Example 65, N-[4-[1-[[2-(4-Chlorophenyl)-4,4-dimethylcyclohexen-1-yl]methyl]-3,6-dihydro-2H-pyridin-4-yl]-2-fluorophenyl]sulfonyl-6-methyl-4-nitropyridine-2-carboxamide]
Second: Cc1nc(C(=O)NS(=O)(=O)c2ccc(N3CCN(CC4=C(c5ccc(Cl)cc5)CC(C)(C)CC4)CC3)cc2Oc2cnc3[nH]ccc3c2)ccc1[N+](=O)[O-] [Example 70, N-[4-[4-[[2-(4-chlorophenyl)-4,4-dimethylcyclohexen-1-yl]methyl]piperazin-1-yl]-2-(1H-pyrrolo[2,3-b]pyridin-5-yloxy)phenyl]sulfonyl-6-methyl-5-nitropyridine-2-carboxamide]
The IC50 of the first is lower: under 10 nM for the first, 10 to 100 nM for the second. The first is the more potent here.

`CC1(C)CCC(CN2CCN(c3ccc(S(=O)(=O)NC(=O)c4ccc(F)c(Br)n4)c(Oc4cnc5[nH]ccc5c4)c3)CC2)=C(c2ccc(Cl)cc2)C1` [Example 67, N-[4-[4-[[2-(4-chlorophenyl)-4,4-dimethylcyclohexen-1-yl]methyl]piperazin-1-yl]-2-(1H-pyrrolo[2,3-b]pyridin-5-yloxy)phenyl]sulfonyl-6-bromo-5-fluoropyridine-2-carboxamide] and `Cc1nc(C(=O)NS(=O)(=O)c2ccc(N3CCN(CC4=C(c5ccc(Cl)cc5)CC(C)(C)CC4)CC3)cc2Oc2cnc3[nH]ccc3c2)ccc1F` [Example 69, N-[4-[4-[[2-(4-chlorophenyl)-4,4-dimethylcyclohexen-1-yl]methyl]piperazin-1-yl]-2-(1H-pyrrolo[2,3-b]pyridin-5-yloxy)phenyl]sulfonyl-5-fluoro-6-methylpyridine-2-carboxamide] fall in the same range of IC50: 10 to 100 nM for the first, 10 to 100 nM for the second.

`CC1(C)CCC(CN2CCN(c3ccc(S(=O)(=O)NC(=O)c4ccc(Cl)c(Cl)n4)c(Oc4cnc5[nH]ccc5c4)c3)CC2)=C(c2ccc(Cl)cc2)C1` [Example 68, 5,6-Dichloro-N-[4-[4-[[2-(4-chlorophenyl)-4,4-dimethylcyclohexen-1-yl]methyl]piperazin-1-yl]-2-(1H-pyrrolo[2,3-b]pyridin-5-yloxy)phenyl]sulfonylpyridine-2-carboxamide] and `Cc1nc(C(=O)NS(=O)(=O)c2ccc(N3CCN(CC4=C(c5ccc(Cl)cc5)CC(C)(C)CC4)CC3)cc2Oc2cnc3[nH]ccc3c2)ccc1Cl` [Example 73, N-[4-[4-[[2-(4-chlorophenyl)-4,4-dimethylcyclohexen-1-yl]methyl]piperazin-1-yl]-2-(1H-pyrrolo[2,3-b]pyridin-5-yloxy)phenyl]sulfonyl-5-chloro-6-methylpyridine-2-carboxamide] fall in the same range of IC50: 10 to 100 nM for the first, 10 to 100 nM for the second.

First: CC1(C)CCC(CN2CCN(c3ccc(S(=O)(=O)NC(=O)c4ccc(Cl)c(C(F)(F)F)n4)c(Oc4cnc5[nH]ccc5c4)c3)CC2)=C(c2ccc(Cl)cc2)C1 [Example 71, 5-Chloro-N-[4-[4-[[2-(4-chlorophenyl)-4,4-dimethylcyclohexen-1-yl]methyl]piperazin-1-yl]-2-(1H-pyrrolo[2,3-b]pyridin-5-yloxy)phenyl]sulfonyl-6-(trifluoromethyl)pyridine-2-carboxamide]
Second: CC1(C)CCC(CN2CCN(c3ccc(S(=O)(=O)NC(=O)c4ccc([N+](=O)[O-])c(Cl)n4)c(Oc4cnc5[nH]ccc5c4)c3)CC2)=C(c2ccc(Cl)cc2)C1 [Example 72, 6-Chloro-N-[4-[4-[[2-(4-chlorophenyl)-4,4-dimethylcyclohexen-1-yl]methyl]piperazin-1-yl]-2-(1H-pyrrolo[2,3-b]pyridin-5-yloxy)phenyl]sulfonyl-5-nitropyridine-2-carboxamide]
The IC50 of the first is higher: 100 to 1000 nM for the first, 10 to 100 nM for the second.

`CC1(C)CCC(CN2CCN(c3ccc(S(=O)(=O)NC(=O)c4ccc5c(c4)CCCO5)c(Oc4cnc5[nH]ccc5c4)c3)CC2)=C(c2ccc(Cl)cc2)C1` [Example 74, N-[4-[4-[[2-(4-chlorophenyl)-4,4-dimethylcyclohexen-1-yl]methyl]piperazin-1-yl]-2-(1H-pyrrolo[2,3-b]pyridin-5-yloxy)phenyl]sulfonyl-3,4-dihydro-2H-chromene-6-carboxamide] and `CC1(C)CCC(CN2CCN(c3ccc(S(=O)(=O)NC(=O)c4cnc5sccc5c4)c(Oc4cnc5[nH]ccc5c4)c3)CC2)=C(c2ccc(Cl)cc2)C1` [Example 75, N-((2-((1H-pyrrolo[2,3-b]pyridin-5-yl)oxy)-4-(4-[[2-(4-Chlorophenyl)-4,4-dimethylcyclohexen-1-yl]methyl]piperazin-1-yl]phenyl)sulfonyl)thieno[2,3-b]pyridine-5-carboxamide] fall in the same range of IC50: 100 to 1000 nM for the first, 100 to 1000 nM for the second.

Reference: US11622970B2, “BCL-2 inhibitors and their use as pharmaceuticals” (PRELUDE THERAPEUTICS INCORPORATED, priority 2020, dated 2023)
